Holding throughout (conditions): read-out: DIZ
One experiment relates to Klebsiella pneumoniae. Nature of the experiment: Antibacterial activity against ESBL-producer Klebsiella pneumoniae K6 700603 at 10 uM by disc diffusion method. The format is functional.
The nature of experiment [1]: Antibacterial activity against Bacillus anthracis Sterne 34F2 at 10 uM by disc diffusion method. The format is functional, Bacillus anthracis str. Sterne.
Experiment [2] has as its system Acinetobacter baumannii. Nature of the experiment: Antibacterial activity against Acinetobacter baumannii ATCC 19606 at 10 uM by disc diffusion method. The format is functional. (In general: Agar diffusion results depend on both activity and mobility in agar.)
The next experiment concerns Enterobacter cloacae. Briefly: Antibacterial activity against Enterobacter cloacae ATCC 23355 at 10 uM by disc diffusion method. The format is functional.
A further experiment deals with Pseudomonas aeruginosa. Nature of the experiment: Antibacterial activity against Pseudomonas aeruginosa ATCC 15442 at 10 uM by disc diffusion method. The format is functional.
For a further experiment, the system named is Enterococcus faecium. Nature of the experiment: Antibacterial activity against vancomycin-resistant Enterococcus faecium ATCC 700221 at 10 uM by disc diffusion method. The format is functional.
Experiment [3] concerns Staphylococcus epidermidis. Briefly: Antibacterial activity against Staphylococcus epidermidis ATCC 14990 at 10 uM by disc diffusion method. The format is functional.
Experiment [4] deals with Staphylococcus aureus. Briefly: Antibacterial activity against methicillin-susceptible Staphylococcus aureus ATCC 29213 at 10 uM by disc diffusion method. The format is functional.
Experiment [5] deals with Staphylococcus aureus. Briefly: Antibacterial activity against methicillin-resistant Staphylococcus aureus BAA-1747 at 10 uM by disc diffusion method. The format is functional.
Another experiment deals with Enterococcus faecalis. Nature of the experiment: Antibacterial activity against vancomycin-susceptible Enterococcus faecalis ATCC 29212 at 10 uM by disc diffusion method. The format is functional.
Experiment [6] is described as follows: Antibacterial activity against vancomycin-intermediate resistant Staphylococcus aureus Mu50 ATCC 700699 at 10 uM by disc diffusion method. The format is functional, Staphylococcus aureus subsp. aureus Mu50.
In experiment [7] the test system is Acinetobacter baumannii. Briefly: Antibacterial activity against ciprofloxacin-resistant Acinetobacter baumannii BAA-1605 at 10 uM by disc diffusion method. The format is functional.

11 compounds from ChEMBL document CHEMBL3864142, “Allicin-inspired thiolated fluoroquinolones as antibacterials against ESKAPE pathogens” (2016) can be followed below.

For the compound `O=C(O)c1cn(C2CC2)c2cc(N3CCN(Sc4ccccc4)CC3)c(F)cc2c1=O`, the zone of inhibition at 10 µM stood at 20 mm with Klebsiella pneumoniae; 36 mm in experiment [1]; 23 mm with Acinetobacter baumannii [2]; 26 mm with Enterobacter cloacae; 27 mm with Pseudomonas aeruginosa; 10 mm in the experiment on Enterococcus faecium. Besides, the zone of inhibition at 10 µM in experiment [3] is 23 mm; in the experiment on Staphylococcus aureus [4], 21 mm; in the experiment with Staphylococcus aureus [5], 22 mm; with Enterococcus faecalis, 20 mm; in [6], 12 mm; in the experiment on Acinetobacter baumannii [7], 0 mm.

With `O=C(O)c1cn(C2CC2)c2cc(N3CCN(Sc4ccc([N+](=O)[O-])cc4)CC3)c(F)cc2c1=O`, the zone of inhibition at 10 µM with Klebsiella pneumoniae is 21 mm; in experiment [1], 32 mm; in the experiment on Acinetobacter baumannii [2], 23 mm; in the experiment on Enterobacter cloacae it was 23 mm; with Pseudomonas aeruginosa, 27 mm; in the experiment with Enterococcus faecium it was 8 mm. For the same compound, the zone of inhibition at 10 µM in [3] worked out at 36 mm; in the experiment on Staphylococcus aureus [4], 29 mm; with Staphylococcus aureus [5] it was 24 mm; in the experiment with Enterococcus faecalis it was 25 mm; in [6] it was 11 mm; in the experiment on Acinetobacter baumannii [7] it was 0 mm.

Regarding `CCSN1CCN(c2cc3c(cc2F)c(=O)c(C(=O)O)cn3C2CC2)CC1`, the zone of inhibition at 10 µM is 23 mm in the experiment on Klebsiella pneumoniae; 37 mm in experiment [1]; 24 mm in the experiment with Acinetobacter baumannii [2]; 25 mm in the experiment with Enterobacter cloacae; 32 mm in the experiment with Pseudomonas aeruginosa; 0 mm in the experiment on Enterococcus faecium. Moreover, the zone of inhibition at 10 µM in [3] was 32 mm; with Staphylococcus aureus [4] it was 24 mm; with Staphylococcus aureus [5] it was 22 mm; in the experiment with Enterococcus faecalis, 25 mm; in experiment [6] it was 11 mm; with Acinetobacter baumannii [7], 0 mm.

As for `O=C(O)c1cn(C2CC2)c2cc(N3CCN(Sc4ccc(Cl)cc4)CC3)c(F)cc2c1=O`, the zone of inhibition at 10 µM with Klebsiella pneumoniae came out at 20 mm; in experiment [1], 34 mm; with Acinetobacter baumannii [2] it was 20 mm; in the experiment with Enterobacter cloacae, 22 mm; with Pseudomonas aeruginosa it was 26 mm; in the experiment with Enterococcus faecium, 8 mm. Besides, the zone of inhibition at 10 µM in experiment [3] was 29 mm; in the experiment with Staphylococcus aureus [4], 21 mm; with Staphylococcus aureus [5], 17 mm; in the experiment with Enterococcus faecalis, 20 mm; in experiment [6], 12 mm; with Acinetobacter baumannii [7], 0 mm.

With `CCCCCCSN1CCN(c2cc3c(cc2F)c(=O)c(C(=O)O)cn3C2CC2)CC1`, the zone of inhibition at 10 µM in the experiment with Klebsiella pneumoniae was found to be 16 mm; in experiment [1] it was 30 mm; in the experiment with Acinetobacter baumannii [2], 15 mm; with Enterobacter cloacae, 19 mm; with Pseudomonas aeruginosa, 23 mm; in the experiment on Enterococcus faecium, 8 mm. For the same compound, the zone of inhibition at 10 µM in experiment [3] worked out at 26 mm; in the experiment with Staphylococcus aureus [4], 18 mm; in the experiment on Staphylococcus aureus [5] it was 18 mm; in the experiment with Enterococcus faecalis, 15 mm; in experiment [6] it was 9 mm; with Acinetobacter baumannii [7], 0 mm.

Regarding `CSN1CCN(c2cc3c(cc2F)c(=O)c(C(=O)O)cn3C2CC2)CC1`, the zone of inhibition at 10 µM in the experiment on Klebsiella pneumoniae stood at 22 mm; in experiment [1], 36 mm; in the experiment with Acinetobacter baumannii [2], 23 mm; in the experiment on Enterobacter cloacae it was 23 mm; in the experiment on Pseudomonas aeruginosa it was 29 mm; with Enterococcus faecium, 0 mm. The zone of inhibition at 10 µM in experiment [3] was determined as 33 mm; with Staphylococcus aureus [4], 24 mm; in the experiment on Staphylococcus aureus [5] it was 23 mm; in the experiment on Enterococcus faecalis, 21 mm; in [6] it was 11 mm; in the experiment on Acinetobacter baumannii [7], 10 mm.

For `CC(C)SN1CCN(c2cc3c(cc2F)c(=O)c(C(=O)O)cn3C2CC2)CC1`, the zone of inhibition at 10 µM is 23 mm with Klebsiella pneumoniae; 36 mm in experiment [1]; 23 mm with Acinetobacter baumannii [2]; 25 mm with Enterobacter cloacae; 31 mm in the experiment on Pseudomonas aeruginosa; 0 mm in the experiment on Enterococcus faecium. Moreover, the zone of inhibition at 10 µM in experiment [3] was determined as 34 mm; with Staphylococcus aureus [4], 21 mm; with Staphylococcus aureus [5], 23 mm; in the experiment with Enterococcus faecalis it was 23 mm; in experiment [6], 10 mm; with Acinetobacter baumannii [7] it was 0 mm.

Regarding `CC(C)C(C)SN1CCN(c2cc3c(cc2F)c(=O)c(C(=O)O)cn3C2CC2)CC1` (configuration not stated), the zone of inhibition at 10 µM is 26 mm in the experiment on Klebsiella pneumoniae; 32 mm in [1]; 26 mm in the experiment with Acinetobacter baumannii [2]; 29 mm with Enterobacter cloacae; 31 mm in the experiment with Pseudomonas aeruginosa; 0 mm with Enterococcus faecium. In addition, the zone of inhibition at 10 µM in [3] turned out to be 29 mm; with Staphylococcus aureus [4] it was 28 mm; in the experiment with Staphylococcus aureus [5], 23 mm; in the experiment with Enterococcus faecalis it was 25 mm; in experiment [6], 9 mm; in the experiment with Acinetobacter baumannii [7], 0 mm.

In the case of `CCC(C)SN1CCN(c2cc3c(cc2F)c(=O)c(C(=O)O)cn3C2CC2)CC1` (configuration not stated), the zone of inhibition at 10 µM in the experiment on Klebsiella pneumoniae was found to be 20 mm; in experiment [1], 35 mm; in the experiment with Acinetobacter baumannii [2] it was 22 mm; in the experiment on Enterobacter cloacae it was 23 mm; in the experiment on Pseudomonas aeruginosa it was 27 mm; with Enterococcus faecium it was 8 mm. In addition, the zone of inhibition at 10 µM worked out at 32 mm in experiment [3]; 24 mm with Staphylococcus aureus [4]; 23 mm in the experiment with Staphylococcus aureus [5]; 22 mm in the experiment on Enterococcus faecalis; 11 mm in experiment [6]; 0 mm in the experiment with Acinetobacter baumannii [7].

For the compound `CCCCSN1CCN(c2cc3c(cc2F)c(=O)c(C(=O)O)cn3C2CC2)CC1`, the zone of inhibition at 10 µM was determined as 21 mm in the experiment on Klebsiella pneumoniae; 37 mm in experiment [1]; 22 mm with Acinetobacter baumannii [2]; 25 mm in the experiment with Enterobacter cloacae; 28 mm in the experiment on Pseudomonas aeruginosa; 0 mm with Enterococcus faecium. Further, the zone of inhibition at 10 µM in experiment [3] was 34 mm; with Staphylococcus aureus [4], 22 mm; in the experiment with Staphylococcus aureus [5] it was 20 mm; in the experiment on Enterococcus faecalis, 23 mm; in experiment [6], 11 mm; with Acinetobacter baumannii [7] it was 0 mm.

Consider `O=C(O)c1cn(C2CC2)c2cc(N3CCN(Sc4ccccc4[N+](=O)[O-])CC3)c(F)cc2c1=O`, for which the zone of inhibition at 10 µM was 9 mm in the experiment with Klebsiella pneumoniae; 27 mm in experiment [1]; 19 mm in the experiment on Acinetobacter baumannii [2]; 19 mm in the experiment with Enterobacter cloacae; 9 mm with Pseudomonas aeruginosa; 0 mm with Enterococcus faecium. Moreover, the zone of inhibition at 10 µM in [3] came out at 23 mm; in the experiment with Staphylococcus aureus [4], 18 mm; with Staphylococcus aureus [5], 19 mm; in the experiment on Enterococcus faecalis it was 20 mm; in experiment [6] it was 0 mm; in the experiment with Acinetobacter baumannii [7] it was 0 mm.
